Source: patent US12351574B2, “Selective ligands for modulation of GIRK channels” (Northeastern University, priority 2018, dated 2025)

Molecular target: T1, GIRK1/2 (UniProt P48542+P48549)
T1 sequence (P48549 1-501): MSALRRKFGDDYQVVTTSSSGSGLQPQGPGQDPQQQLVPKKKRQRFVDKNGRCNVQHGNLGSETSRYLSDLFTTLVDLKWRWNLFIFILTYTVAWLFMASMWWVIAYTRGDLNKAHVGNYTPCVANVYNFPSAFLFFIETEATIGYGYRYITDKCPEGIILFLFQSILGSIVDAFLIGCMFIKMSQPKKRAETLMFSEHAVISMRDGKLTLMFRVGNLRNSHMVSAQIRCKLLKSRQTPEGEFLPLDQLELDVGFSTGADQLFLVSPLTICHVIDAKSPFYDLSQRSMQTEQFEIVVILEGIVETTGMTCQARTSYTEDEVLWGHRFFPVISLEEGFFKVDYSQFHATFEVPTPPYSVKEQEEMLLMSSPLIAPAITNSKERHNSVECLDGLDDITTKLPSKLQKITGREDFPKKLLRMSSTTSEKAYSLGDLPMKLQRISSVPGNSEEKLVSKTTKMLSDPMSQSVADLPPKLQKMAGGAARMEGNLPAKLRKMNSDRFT
T1 sequence (P48542 1-425): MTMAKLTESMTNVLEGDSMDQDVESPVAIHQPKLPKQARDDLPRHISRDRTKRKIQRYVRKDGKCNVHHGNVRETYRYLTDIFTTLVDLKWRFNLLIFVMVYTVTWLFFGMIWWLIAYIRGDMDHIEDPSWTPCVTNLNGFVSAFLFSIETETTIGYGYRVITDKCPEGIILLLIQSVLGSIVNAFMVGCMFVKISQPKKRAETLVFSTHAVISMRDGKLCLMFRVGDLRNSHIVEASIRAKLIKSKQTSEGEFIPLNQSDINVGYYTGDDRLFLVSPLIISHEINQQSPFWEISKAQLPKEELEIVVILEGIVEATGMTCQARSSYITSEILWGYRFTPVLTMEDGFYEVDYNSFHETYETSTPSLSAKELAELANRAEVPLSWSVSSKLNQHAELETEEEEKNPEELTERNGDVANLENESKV
Assay: concentration-response, whole-cell patch clamp in HEK-293 cells expressing GIRK1/2
Type: cell-based, human GIRK1, mouse GIRK2
Set-up: expressed in transfected cells
Settings: FIGS. 5A-5C
Experimental: Culture of HEK293 cells: HEK293-T cells were obtained from ATCC and maintained in DMEM medium supplemented with 10% FBS and 1% penicillin and streptomycin (Hyclone). For patch-clamp studies, cells were seeded on glass coverslips and transfected 24-hours later using a polyethylenimine solution (1 mg/ml) at a ratio of 8 μl per μg of DNA. To study GIRK-currents, cells were transfected with 0.75 μg each of plasmids encoding GIRK1, GIRK2 or GIRK4 as indicated. In the optogenetic experiments, cells were co-transfected with plasmids encoding 5-ptaseOCRL and CIBN-CAAX, as previously described. 5-ptaseOCRL and CIBN-CAAX were a kind gift from the DeCamilli lab, Yale CT. All experiments were performed at room temperature 24-36 hours post transfection.
Patch-clamp recording: Whole-cell currents were recorded with an Axopatch 200B amplifier (Molecular Devices) controlled via a USB-interface (National Instruments) using WinWCP software (University of Strathclyde). […] The barium-sensitive component of the current, observed when cells were perfused with the high-K^+ buffer, was analyzed and was determined by perfusing 5 mM BaCl2 in the high-K^+ buffer at the end of each experiment. […]
Patch-clamp recording: Whole-cell currents were recorded with an Axopatch 200B amplifier (Molecular Devices) controlled via a USB-interface (National Instruments) using WinWCP software (University of Strathclyde). […]

Cc1cc(NC(=O)Nc2ccc(Br)s2)n(-c2ccccc2)n1 [GAT1508, 1-(5-bromothiophen-2-yl)-3-(3-methyl-1-phenyl-1H-pyrazol-5-yl)urea]
potency and efficacy compared to ML297 or GAT1521 (in words): highest potency and efficacy
